Cytotoxicity data for 95 molecules are collected here from ChEMBL document CHEMBL3507680, “University of Dundee, Gates Library screen for HepG2 cell viability”.

Each structure is given as a SMILES string.

The series is described as follows: Human HepG2 cell viability assay in 384 well format. Format: toxicity, cell-based. Further details: dose 125 nL, time 70.5 hour; cytotoxicity at 70.5 h: concentration not given beside the values. To be noted: HepG2 cells, read-out: Inhibition.

As to `COCCC(=O)N1CCC2(COCc3cnc(N(C)C)nc32)C1` (stereo not given), the cytotoxicity at 70.5 h is -8.65%.

On to `CN1CCCC2(CC1)CCN(C(=O)CCc1ccccc1F)CC2`, for which the cytotoxicity at 70.5 h was -6.92%.

As for `CSc1cccc(CN(C)C(=O)c2cccc(C3CCCNC3)c2)c1` (stereo not given), the cytotoxicity at 70.5 h was -2.36%.

As to `CN(CCCC1CCCO1)C(=O)c1cccc(C#N)c1` (stereo not given), the cytotoxicity at 70.5 h was -5.92%.

Turning to `O=C(N[C@H]1CC[C@H](O)CC1)c1ccc2nc(-c3ccc(F)cc3)cn2c1`, the cytotoxicity at 70.5 h was -9.74%.

As to `COc1ccc(CN2CC[C@@]3(O)CCCC[C@H]3C2)cc1C(=O)O`, the cytotoxicity at 70.5 h was 8.88%.

On to `CC(C)O[C@H]1CN(C(=O)CCN2CCCCO2)C[C@@H]1O`, for which the cytotoxicity at 70.5 h worked out at 11.2%.

With `Cc1cc(CC(C)Nc2ncc(C)c(N(C)C)n2)[nH]n1` (stereo not given), the cytotoxicity at 70.5 h was -1.49%.

For `CC(C)Cc1noc(CN(C)c2ncccn2)n1`, the cytotoxicity at 70.5 h was -3.77%.

Consider `CCc1cc(NCCc2cccnc2)n2nc(C)c(C)c2n1`, for which the cytotoxicity at 70.5 h is -5.81%.

Turning to `CCc1ncc(CN2C[C@H]3CC[C@@H]2CN(C(=O)C2CCC2)C3)cn1`, the cytotoxicity at 70.5 h is -6.96%.

For `CCCN1CCCn2nc(CNS(=O)(=O)c3cnn(CC)c3)cc2C1`, the cytotoxicity at 70.5 h is -3.06%.

For the molecule `COc1ccccc1CN1C(=O)O[C@@H]2CN(c3nc(C)cnc3C)C[C@@H]21`, the cytotoxicity at 70.5 h is -3.32%.

On to `CCOc1ccccc1CC(=O)N1C[C@H](C2CC2)[C@@H](N)C1`, for which the cytotoxicity at 70.5 h was -0.519%.

On to `CCc1nnc(CN(C)c2nccc(N3CCCC(O)C3)n2)o1` (stereo not given), for which the cytotoxicity at 70.5 h is 27.2%.

With `Cc1cc(F)c(C(C(=O)O)N2CCN(Cc3ccccn3)CC2)cc1Cl` (stereo not given), the cytotoxicity at 70.5 h is -6.6%.

With `CCc1cc(NC(CCO)c2ccc(OC)cc2)n2nccc2n1` (stereo not given), the cytotoxicity at 70.5 h was -0.73%.

Turning to `C[C@@H]1CN(C2Cc3ccccc3C2)CC[C@@]1(O)C1CCOCC1`, the cytotoxicity at 70.5 h is -10.1%.

On to `CN(CC(=O)N1CC(C)(C)[C@@](C)(O)C1)Cc1ccncc1`, for which the cytotoxicity at 70.5 h is -6.29%.

For `CCCn1cc(-c2cc(C(=O)N(C)C)c3ccc(OC)cc3n2)cn1`, the cytotoxicity at 70.5 h was -3.58%.

Regarding `CC(C)C1CN(S(C)(=O)=O)CCCN1Cc1ccc(F)cc1` (stereo not given), the cytotoxicity at 70.5 h was -3.17%.

`CC(C)[C@H]1CN(CC2CCC2)C[C@@H]1NC(=O)c1ccc(=O)[nH]c1`: the cytotoxicity at 70.5 h was 3.69%.

Consider `Cc1cc(NCCc2nc(C)c[nH]2)nc(-c2ccccc2O)n1`, for which the cytotoxicity at 70.5 h is -1.72%.

Take `CN(C)c1ccc(C(=O)N2CCCN(C3CCCCC3)CC2)cn1`: the cytotoxicity at 70.5 h was -7.27%.

With `CN(Cc1ccc(-n2cccn2)cc1)Cc1cnc(N(C)C)nc1`, the cytotoxicity at 70.5 h was -8.45%.

Consider `CC(C)=CCN1CCN(C(=O)c2cc(C(C)C)on2)[C@H]2CS(=O)(=O)C[C@H]21`, for which the cytotoxicity at 70.5 h was -8.01%.

Turning to `O=C1NC2(CCN(Cc3ccccc3Cl)CC2)CC1c1ccccc1` (stereo not given), the cytotoxicity at 70.5 h was -9.33%.

Regarding `CCCN1CCC(Cc2noc(-c3ncccc3C)n2)CC1`, the cytotoxicity at 70.5 h was -5.81%.

Turning to `OC1(CN2CCCC2)COCCN(c2ncnc3[nH]cnc23)C1` (stereo not given), the cytotoxicity at 70.5 h was -0.684%.

Consider `CC(C)=CCN1CCC(c2nnc(CN3CCN(C)CC3)n2C)CC1`, for which the cytotoxicity at 70.5 h was determined as 35%.

Take `O=C1CCOCCN1Cc1ccc(Cl)c(Cl)c1`: the cytotoxicity at 70.5 h stood at 33.5%.

`Cc1ccccc1OC1CN(Cc2c(C)nc3ccccn23)C1`: the cytotoxicity at 70.5 h stood at 26.8%.

`O=C(NCC1(O)CCCCC1)c1coc(COc2cccc(F)c2)n1`: the cytotoxicity at 70.5 h stood at 1.09%.

As to `Fc1cccc(-c2n[nH]cc2-c2nc(CN3CCOCC3)no2)c1`, the cytotoxicity at 70.5 h came out at 15.5%.

As for `CSc1ccc(C(=O)N2C[C@H]3CC[C@@H]2CN(Cc2cccnc2)C3)cc1`, the cytotoxicity at 70.5 h is -5.35%.

`O=C(C1CC(=O)N(C2CC2)C1)N1CCC(Oc2ccccc2Cl)CC1` (stereo not given): the cytotoxicity at 70.5 h turned out to be 0.0694%.

For the molecule `O=C(NCC1CCCN(C(=O)NCCc2ccccc2)C1)c1ccco1` (stereo not given), the cytotoxicity at 70.5 h is -0.863%.

Turning to `Cc1nnc(NCCn2nc(C)c(Cl)c2C)o1`, the cytotoxicity at 70.5 h was -6.66%.

For the molecule `Cc1nnc(SCCNC(=O)CC2CCc3ccccc32)s1` (stereo not given), the cytotoxicity at 70.5 h is -4.12%.

As to `CCCn1nccc1S(=O)(=O)N1CCC2(CCCN(C(C)C)C2=O)C1` (stereo not given), the cytotoxicity at 70.5 h was determined as 17.4%.

On to `COc1cccc(-c2cc(C(=O)NCCCn3cnnc3)[nH]n2)c1`, for which the cytotoxicity at 70.5 h was -11.1%.

Take `CCOc1cc(CNCc2nc(C)cc(=O)[nH]2)c(Cl)cc1OC(C)C`: the cytotoxicity at 70.5 h was -3.61%.

In the case of `O=C1COc2ccccc2N1CCCn1cnnn1`, the cytotoxicity at 70.5 h was -9.54%.

For the molecule `O=C1CCC2(CCCN(C(=O)c3ncc[nH]3)C2)CN1CCc1c[nH]cn1` (stereo not given), the cytotoxicity at 70.5 h was 13.6%.

For `CN1CCC(N(C)CCC(=O)N2CCC(Oc3ccc(Cl)cc3)CC2)C1` (stereo not given), the cytotoxicity at 70.5 h is -5.97%.

Regarding `Cn1cc(Cl)c(CN(Cc2ccsc2)CC2CCCO2)n1` (stereo not given), the cytotoxicity at 70.5 h was -5.58%.

`COCCN1CCC(C(=O)N(C)Cc2c[nH]c3ccc(C)cc23)C1` (stereo not given): the cytotoxicity at 70.5 h is -8.11%.

With `OC[C@H]1CN(Cc2c(Cl)cncc2Cl)C[C@H]1CN1CCCC1`, the cytotoxicity at 70.5 h was -9.31%.

For `CS(=O)(=O)c1ncc(CN2CCN3CCCC3C2)n1CC1CCCCC1` (stereo not given), the cytotoxicity at 70.5 h is -6.4%.

Turning to `Cc1cc(NC(=O)CNCc2csc(-c3cnccn3)n2)ccc1Cl`, the cytotoxicity at 70.5 h is -6.43%.

Turning to `CC(C)c1cc(C(=O)NCC2CCCN(c3ncccn3)C2)n(C)n1` (stereo not given), the cytotoxicity at 70.5 h is -5.82%.

For `O=C1NCCCCC1NC(=O)C1(Oc2ccc(Cl)cc2)CCNCC1` (stereo not given), the cytotoxicity at 70.5 h was -7.72%.

Consider `Cc1ccc2nc(C(=O)N3CC(c4cccnc4)C3)cn2c1`, for which the cytotoxicity at 70.5 h is -6.09%.

On to `COCCN1C[C@H](NC(=O)CCC(F)(F)F)[C@@H](C(C)C)C1`, for which the cytotoxicity at 70.5 h is -2.58%.

Take `NC(=O)c1cn2cc(-c3ccccc3Cl)n(CC3CC3)c(=O)c2n1`: the cytotoxicity at 70.5 h was -9.1%.

Take `NCCc1nc(N(Cc2cncs2)C2CC2)c2ccccc2n1`: the cytotoxicity at 70.5 h was 24.1%.

Regarding `Cc1cc(C)n(CCCC(=O)N2CC[C@H]3NCCC[C@]3(CO)C2)n1`, the cytotoxicity at 70.5 h was -2.14%.

Regarding `CC(=O)Nc1ccc2nc(-c3nccn3C[C@@H]3CCCO3)ccc2c1`, the cytotoxicity at 70.5 h is -11.8%.

For the molecule `COCCN(Cc1sccc1C)C(=O)COc1ccccc1O`, the cytotoxicity at 70.5 h was -4.7%.

In the case of `CCn1c(Cn2cccn2)nnc1C1CCN(Cc2ccc(C)o2)CC1`, the cytotoxicity at 70.5 h was 19.3%.

In the case of `Cc1ccc(C(F)(F)F)cc1C(=O)N[C@H]1CN(CCO)C[C@@H]1C1CC1`, the cytotoxicity at 70.5 h is -3.09%.

Regarding `Cc1cc(N(C)CCCn2cccn2)nc(N)n1`, the cytotoxicity at 70.5 h is -12.7%.

For `COc1ccc(F)c(CNC2CCCc3nc(N(C)C)ncc32)c1` (stereo not given), the cytotoxicity at 70.5 h is -11.5%.

With `OC1(CNCc2noc(Cc3ccccc3)n2)CNCCOC1` (stereo not given), the cytotoxicity at 70.5 h is -4.33%.

Consider `CCN(CC)C(=O)N1CCN(Cc2cnc(C)nc2)[C@H]2CS(=O)(=O)C[C@H]21`, for which the cytotoxicity at 70.5 h was -17.5%.

Regarding `CCN(Cc1nc(COC)no1)Cc1cc2ccc(F)cc2[nH]c1=O`, the cytotoxicity at 70.5 h was -12.1%.

Regarding `CCC(C)Oc1ccc(CNCCNC(C)=O)cc1OC` (stereo not given), the cytotoxicity at 70.5 h was -6.94%.

As to `CCc1nccn1CC(=O)N1C[C@H]2CC[C@@H]1CN(c1ncccn1)C2`, the cytotoxicity at 70.5 h is -0.942%.

On to `CN1CC(c2ccccc2)CC12CCN(C(=O)c1cccnc1)CC2` (stereo not given), for which the cytotoxicity at 70.5 h was -9.06%.

On to `Cc1oc(C(C)C)cc1C(=O)N1C[C@H]2CC[C@@H]1CN(c1ncccn1)C2`, for which the cytotoxicity at 70.5 h was -13.7%.

In the case of `COc1ccc(S(=O)(=O)N[C@H]2CN(C(C)=O)C[C@@H]2C(C)C)cc1F`, the cytotoxicity at 70.5 h was -12.5%.

On to `CCCc1cc(C(=O)N[C@@H](CO)[C@@H](O)c2ccccc2)n(C)n1`, for which the cytotoxicity at 70.5 h was found to be 0.909%.

As for `CCc1cn[nH]c1C1CCN(c2cc(C)c3ccc(OC)cc3n2)CC1`, the cytotoxicity at 70.5 h stood at 9.99%.

Consider `CCc1nc(C)sc1CN(Cc1ccncc1)C1CCN(C)CC1`, for which the cytotoxicity at 70.5 h was -6.03%.

For `CC1(C)CC(CN2CCC3(CCC(=O)N(CCO)C3)CC2)CCO1` (stereo not given), the cytotoxicity at 70.5 h is -10.6%.

`Cc1ccc(C(=O)N2CCC3(CCC(=O)N(CC(C)O)C3)CC2)c(O)c1` (stereo not given): the cytotoxicity at 70.5 h was -7.72%.

Regarding `CC(C)Cn1cncc1-c1nc2c([nH]1)CCCNC2=O`, the cytotoxicity at 70.5 h was -6.28%.

On to `N[C@H]1CC[C@@H](CN2CCCn3nc(CNC(=O)C4CCC4)cc3C2)CC1`, for which the cytotoxicity at 70.5 h is -9.19%.

For `CC(C)C(O)C1CCN(c2ccnc(C(=O)NCc3ccco3)c2)CC1` (stereo not given), the cytotoxicity at 70.5 h is -14.1%.

As for `CC(=O)N1CCCC(C(=O)NCc2noc(Cc3ccccc3)n2)C1` (stereo not given), the cytotoxicity at 70.5 h was -11.1%.

Turning to `CC(C)Cc1cc(C(=O)N2CCC(C(=O)N3CCOCC3)CC2)on1`, the cytotoxicity at 70.5 h is -7.8%.

Turning to `Cc1cccc(CNC2CC(=O)N(CCc3cccc(Cl)c3)C2)n1` (stereo not given), the cytotoxicity at 70.5 h was -8.39%.

On to `COc1cnc(N2C[C@H](CO)C[C@H](CN3CCOCC3)C2)nc1`, for which the cytotoxicity at 70.5 h was -2.01%.

Turning to `CN(C)CCCNC(=O)C(c1cccc(F)c1)N(C)C` (stereo not given), the cytotoxicity at 70.5 h is -2.43%.

As to `c1ccc(CN2CCC(NCCSc3cnn[nH]3)CC2)cc1`, the cytotoxicity at 70.5 h turned out to be 2.48%.

For the molecule `COCCN(Cc1ccccc1Cl)C(=O)c1c(C)cc(C)[nH]c1=O`, the cytotoxicity at 70.5 h was -2.7%.

For the molecule `COCc1noc(CCNc2ncnc3c2CCNCC3)n1`, the cytotoxicity at 70.5 h is -8.6%.

As to `COCCC1(C(=O)O)CCCN(C(=O)c2cc(C)oc2C)C1` (stereo not given), the cytotoxicity at 70.5 h is -15.5%.

In the case of `O=C(NCc1sc2ccccc2c1Cl)c1cc2n(n1)CCNC2`, the cytotoxicity at 70.5 h worked out at 18.3%.

`O=C(c1ccc2c(c1)OCO2)N1CCCC(Nc2ccc(F)cc2)C1` (stereo not given): the cytotoxicity at 70.5 h is -2.98%.

Consider `Cn1ncc2c(NCC3CCS(=O)(=O)C3)nc(C3CCCC3)nc21` (stereo not given), for which the cytotoxicity at 70.5 h is -3.73%.

For the molecule `Cc1n[nH]c(SCC(=O)N2C[C@H]3CC[C@@H]2CN(c2ncccn2)C3)n1`, the cytotoxicity at 70.5 h is -4.86%.

For `O=C1CC(c2ncc(-c3ccc4c(c3)OCCO4)[nH]2)CN1C1CC1` (stereo not given), the cytotoxicity at 70.5 h was -7.8%.

For `OC1CCCN(Cc2cn(CC3CCN(C4CCSCC4)CC3)nn2)C1` (stereo not given), the cytotoxicity at 70.5 h was -2.84%.

With `CS(=O)(=O)N1C[C@H]2CNC[C@@]2(C(=O)NCCOc2ccccc2)C1`, the cytotoxicity at 70.5 h was -1.07%.
